Assay results from ChEMBL document CHEMBL2034905, “Synthesis of benzimidazolyl-1,3,4-oxadiazol-2ylthio-N-phenyl (benzothiazolyl) acetamides as antibacterial, antifungal and antituberculosis agents” (Eur J Med Chem, 2012).
≈ marks a conversion by molar mass, not a printed value.

Assays:
Salmonella typhi [1] = experiment: Antibacterial activity against Salmonella typhi MTCC 733 at 100 ug/disc by paper disc diffusion technique; assay type: functional, Salmonella enterica subsp. enterica serovar Typhi; conditions: Salmonella enterica, read-out: IZ
[2] = Lipophilicity, log P of the compound; assay type: physicochemical; conditions: octanol/water
Escherichia coli [3] = experiment: Antibacterial activity against Escherichia coli MTCC 739 by agar streak dilution method; assay type: functional
Pseudomonas aeruginosa [4] = experiment: Antibacterial activity against Pseudomonas aeruginosa MTCC 741 at 100 ug/disc by paper disc diffusion technique; assay type: functional; conditions: read-out: IZ
Staphylococcus aureus [5] = experiment: Antibacterial activity against Staphylococcus aureus MTCC 96 by agar streak dilution method; assay type: functional
Proteus vulgaris [6] = experiment: Antibacterial activity against Proteus vulgaris MTCC 1771 at 100 ug/disc by paper disc diffusion technique; assay type: functional; conditions: read-out: IZ
Aspergillus clavatus [7] = experiment: Antifungal activity against Aspergillus clavatus MTCC 1323 by agar streak dilution method; assay type: functional
Escherichia coli [8] = experiment: Antibacterial activity against Escherichia coli MTCC 739 at 100 ug/disc by paper disc diffusion technique; assay type: functional; conditions: read-out: IZ
Staphylococcus aureus [9] = experiment: Antibacterial activity against Staphylococcus aureus MTCC 96 at 100 ug/disc by paper disc diffusion technique; assay type: functional; conditions: read-out: IZ
[10] = system: Mycobacterium tuberculosis; experiment: Antituberculosis activity against Mycobacterium tuberculosis H37Rv by Lowenstein-Jensen method; assay type: functional
Salmonella typhi [11] = experiment: Antibacterial activity against Salmonella typhi MTCC 733 by agar streak dilution method; assay type: functional, Salmonella enterica subsp. enterica serovar Typhi; conditions: Salmonella enterica
Candida albicans [12] = experiment: Antifungal activity against Candida albicans MTCC 183 by agar streak dilution method; assay type: functional
Aspergillus clavatus [13] = experiment: Antifungal activity against Aspergillus clavatus MTCC 1323 at 100 ug/disc by paper disc diffusion technique; assay type: functional; conditions: read-out: IZ
Aspergillus fumigatus [14] = experiment: Antifungal activity against Aspergillus fumigatus MTCC 343 by agar streak dilution method; assay type: functional
Shigella flexneri [15] = experiment: Antibacterial activity against Shigella flexneri MTCC 1457 at 100 ug/disc by paper disc diffusion technique; assay type: functional; conditions: read-out: IZ
Klebsiella pneumoniae [16] = experiment: Antibacterial activity against Klebsiella pneumoniae MTCC 109 by agar streak dilution method; assay type: functional
Aspergillus niger [17] = experiment: Antifungal activity against Aspergillus niger MTCC 282 by agar streak dilution method; assay type: functional
[18] = system: Mycobacterium tuberculosis; experiment: Antituberculosis activity against Mycobacterium tuberculosis H37Rv at 6.25 ug/ml by Lowenstein-Jensen method; assay type: functional
Bacillus cereus [19] = experiment: Antibacterial activity against Bacillus cereus MTCC 430 at 100 ug/disc by paper disc diffusion technique; assay type: functional; conditions: read-out: IZ
Pseudomonas aeruginosa [20] = experiment: Antibacterial activity against Pseudomonas aeruginosa MTCC 741 by agar streak dilution method; assay type: functional
Bacillus cereus [21] = experiment: Antibacterial activity against Bacillus cereus MTCC 430 by agar streak dilution method; assay type: functional
Shigella flexneri [22] = experiment: Antibacterial activity against Shigella flexneri MTCC 1457 by agar streak dilution method; assay type: functional
Klebsiella pneumoniae [23] = experiment: Antibacterial activity against Klebsiella pneumoniae MTCC 109 at 100 ug/disc by paper disc diffusion technique; assay type: functional; conditions: read-out: IZ
Aspergillus niger [24] = experiment: Antifungal activity against Aspergillus niger MTCC 282 at 100 ug/disc by paper disc diffusion technique; assay type: functional; conditions: read-out: IZ
Aspergillus fumigatus [25] = experiment: Antifungal activity against Aspergillus fumigatus MTCC 343 at 100 ug/disc by paper disc diffusion technique; assay type: functional; conditions: read-out: IZ
Candida albicans [26] = experiment: Antifungal activity against Candida albicans MTCC 183 at 100 ug/disc by paper disc diffusion technique; assay type: functional; conditions: read-out: IZ
Proteus vulgaris [27] = experiment: Antibacterial activity against Proteus vulgaris MTCC 1771 by agar streak dilution method; assay type: functional
[28] = system: Mycobacterium tuberculosis; experiment: Antituberculosis activity against Mycobacterium tuberculosis H37Rv by BACTEC MGIT method; assay type: functional

SMILES | zone of inhibition at 100 µg/disc (Salmonella typhi [1]) | MIC (Escherichia coli [3]) | zone of inhibition at 100 µg/disc (Pseudomonas aeruginosa [4]) | MIC (Staphylococcus aureus [5]) | zone of inhibition at 100 µg/disc (Proteus vulgaris [6]) | MIC (Aspergillus clavatus [7]) | zone of inhibition at 100 µg/disc (Escherichia coli [8]) | zone of inhibition at 100 µg/disc (Staphylococcus aureus [9]) | MIC [10] | MIC (Salmonella typhi [11]) | MIC (Candida albicans [12]) | zone of inhibition at 100 µg/disc (Aspergillus clavatus [13]) | MIC (Aspergillus fumigatus [14]) | zone of inhibition at 100 µg/disc (Shigella flexneri [15]) | MIC (Klebsiella pneumoniae [16]) | MIC (Aspergillus niger [17]) | inhibition at 6.25 µg/mL [18] | zone of inhibition at 100 µg/disc (Bacillus cereus [19]) | MIC (Pseudomonas aeruginosa [20]) | MIC (Bacillus cereus [21]) | further results
Cc1ccc(NC(=O)CSc2nnc(Cn3cnc4ccccc43)o2)cc1 | 17 mm | 100 µg/mL (≈ 264 µM) | 14 mm | 100 µg/mL (≈ 264 µM) | 14 mm | 100 µg/mL (≈ 264 µM) | 14 mm | 11 mm | 100 µg/mL (≈ 264 µM) | 100 µg/mL (≈ 264 µM) | 100 µg/mL (≈ 264 µM) | 12 mm | 100 µg/mL (≈ 264 µM) | < 10 mm | 100 µg/mL (≈ 264 µM) | 100 µg/mL (≈ 264 µM) | 95% | 13 mm | 100 µg/mL (≈ 264 µM) | 100 µg/mL (≈ 264 µM) | logP [2]: 2.98; MIC (Shigella flexneri [22]): 100 µg/mL (≈ 264 µM); zone of inhibition at 100 µg/disc (Klebsiella pneumoniae [23]): < 10 mm; zone of inhibition at 100 µg/disc (Aspergillus niger [24]): < 10 mm; zone of inhibition at 100 µg/disc (Aspergillus fumigatus [25]): < 10 mm; zone of inhibition at 100 µg/disc (Candida albicans [26]): 14 mm; MIC (Proteus vulgaris [27]): 100 µg/mL (≈ 264 µM); MIC [28]: > 6.25 µg/mL
CC(=O)Nc1ccc(NC(=O)CSc2nnc(Cn3cnc4ccccc43)o2)cc1 | < 10 mm | 50 µg/mL (≈ 118 µM) | 19 mm | 100 µg/mL (≈ 237 µM) | 20 mm | 100 µg/mL (≈ 237 µM) | 20 mm | < 10 mm | 100 µg/mL (≈ 237 µM) | 100 µg/mL (≈ 237 µM) | 100 µg/mL (≈ 237 µM) | 18 mm | 100 µg/mL (≈ 237 µM) | 16 mm | 100 µg/mL (≈ 237 µM) | 25 µg/mL (≈ 59.2 µM) | 95% | 11 mm | 100 µg/mL (≈ 237 µM) | 100 µg/mL (≈ 237 µM) | MIC (Shigella flexneri [22]): 100 µg/mL (≈ 237 µM); zone of inhibition at 100 µg/disc (Klebsiella pneumoniae [23]): 13 mm; zone of inhibition at 100 µg/disc (Aspergillus niger [24]): 22 mm; zone of inhibition at 100 µg/disc (Aspergillus fumigatus [25]): 15 mm; zone of inhibition at 100 µg/disc (Candida albicans [26]): 18 mm; MIC (Proteus vulgaris [27]): 25 µg/mL (≈ 59.2 µM); MIC [28]: > 6.25 µg/mL
O=C(CSc1nnc(Cn2cnc3ccccc32)o1)Nc1nc2ccccc2s1 | < 10 mm | 100 µg/mL (≈ 237 µM) | 12 mm | 50 µg/mL (≈ 118 µM) | 17 mm | 100 µg/mL (≈ 237 µM) | 15 mm | 15 mm | 500 µg/mL (≈ 1180 µM) | 100 µg/mL (≈ 237 µM) | 100 µg/mL (≈ 237 µM) | < 10 mm | 100 µg/mL (≈ 237 µM) | 13 mm | 100 µg/mL (≈ 237 µM) | 100 µg/mL (≈ 237 µM) | 94% | 14 mm | 100 µg/mL (≈ 237 µM) | 100 µg/mL (≈ 237 µM) | logP [2]: 3.69; MIC (Shigella flexneri [22]): 100 µg/mL (≈ 237 µM); zone of inhibition at 100 µg/disc (Klebsiella pneumoniae [23]): < 10 mm; zone of inhibition at 100 µg/disc (Aspergillus niger [24]): < 10 mm; zone of inhibition at 100 µg/disc (Aspergillus fumigatus [25]): < 10 mm; zone of inhibition at 100 µg/disc (Candida albicans [26]): 13 mm; MIC (Proteus vulgaris [27]): 100 µg/mL (≈ 237 µM); MIC [28]: > 6.25 µg/mL
O=C(CSc1nnc(Cn2cnc3ccccc32)o1)Nc1nc2ccc(Cl)cc2s1 | 22 mm | 50 µg/mL (≈ 109 µM) | 23 mm | 12.5 µg/mL (≈ 27.4 µM) | 20 mm | 100 µg/mL (≈ 219 µM) | 20 mm | 22 mm | 62.5 µg/mL (≈ 137 µM) | 50 µg/mL (≈ 109 µM) | 100 µg/mL (≈ 219 µM) | 15 mm | 100 µg/mL (≈ 219 µM) | 25 mm | 50 µg/mL (≈ 109 µM) | 100 µg/mL (≈ 219 µM) | 97% | 27 mm | 25 µg/mL (≈ 54.7 µM) | 6.25 µg/mL (≈ 13.7 µM) | logP [2]: 4.25; MIC (Shigella flexneri [22]): 6.25 µg/mL (≈ 13.7 µM); zone of inhibition at 100 µg/disc (Klebsiella pneumoniae [23]): 20 mm; zone of inhibition at 100 µg/disc (Aspergillus niger [24]): 16 mm; zone of inhibition at 100 µg/disc (Aspergillus fumigatus [25]): 13 mm; zone of inhibition at 100 µg/disc (Candida albicans [26]): 14 mm; MIC (Proteus vulgaris [27]): 50 µg/mL (≈ 109 µM); MIC [28]: > 6.25 µg/mL
